Test results: the NIST ThermoML archive (doi:10.1016/j.jct.2015.12.027)
Numbers after ± are expanded uncertainties.

How the values were obtained:
[1] = 81.5 kPa, Liquid, Vibrating tube method
[2] = refractive index (Na D-line) (dimensionless); conditions: 81.5 kPa, Liquid, Standard Abbe refractometry
[3] = xn = mol fraction of the nth substance listed; conditions: 81.5 kPa, Liquid, Vibrating tube method
[4] = refractive index (Na D-line) (dimensionless); xn = mol fraction of the nth substance listed; conditions: 81.5 kPa, Liquid, Standard Abbe refractometry

SMILES | mass density ([1]; 293.15 K) [kg/m3] | mass density ([1]; 303.15 K) [kg/m3] | mass density ([1]; 313.15 K) [kg/m3] | mass density ([1]; 323.15 K) [kg/m3] | mass density ([1]; 333.15 K) [kg/m3] | refractive index ([2]; 293.15 K) | refractive index ([2]; 303.15 K) | refractive index ([2]; 313.15 K) | refractive index ([2]; 323.15 K) | refractive index ([2]; 333.15 K) | mass density ([3]; 293.15 K, x1 = 1) [kg/m3] | mass density ([3]; 303.15 K, x1 = 1) [kg/m3] | mass density ([3]; 313.15 K, x1 = 1) [kg/m3] | mass density ([3]; 323.15 K, x1 = 1) [kg/m3] | mass density ([3]; 333.15 K, x1 = 1) [kg/m3] | refractive index ([4]; 293.15 K, x1 = 1) | refractive index ([4]; 303.15 K, x1 = 1) | refractive index ([4]; 313.15 K, x1 = 1) | refractive index ([4]; 323.15 K, x1 = 1) | refractive index ([4]; 333.15 K, x1 = 1) | other results
ClCCCl [1,2-dichloroethane] | 1252.82 ± 10 | 1238.27 ± 10 | 1223.53 ± 10 | 1208.61 ± 10 | 1193.61 ± 10 | 1.44472 ± 0.01 | 1.43948 ± 0.01 | 1.43423 ± 0.01 | 1.42897 ± 0.01 | 1.42373 ± 0.01 |  |  |  |  |  |  |  |  |  |  | 
ClCCCl [1,2-dichloroethane] + Brc1ccccc1 |  |  |  |  |  |  |  |  |  |  | 1252.82 ± 10 | 1238.27 ± 10 | 1223.53 ± 10 | 1208.61 ± 10 | 1193.61 ± 10 | 1.44472 ± 0.01 | 1.43948 ± 0.01 | 1.43423 ± 0.01 | 1.42897 ± 0.01 | 1.42373 ± 0.01 | 
ClCCCl [1,2-dichloroethane] + Clc1ccccc1 |  |  |  |  |  |  |  |  |  |  | 1252.82 ± 10 | 1238.27 ± 10 | 1223.53 ± 10 | 1208.61 ± 10 | 1193.61 ± 10 | 1.44472 ± 0.01 | 1.43948 ± 0.01 | 1.43423 ± 0.01 | 1.42897 ± 0.01 | 1.42373 ± 0.01 | 
ClCCCl [1,2-dichloroethane] + O=[N+]([O-])c1ccccc1 |  |  |  |  |  |  |  |  |  |  | 1252.82 ± 10 | 1238.27 ± 10 | 1223.53 ± 10 | 1208.61 ± 10 | 1193.61 ± 10 | 1.44472 ± 0.01 | 1.43948 ± 0.01 | 1.43423 ± 0.01 | 1.42897 ± 0.01 | 1.42373 ± 0.01 | 
c1ccccc1 [benzene] | 878.87 ± 10 | 868.2 ± 10 | 857.44 ± 10 | 846.62 ± 10 | 835.71 ± 10 | 1.50118 ± 0.01 | 1.49517 ± 0.01 | 1.4885 ± 0.01 | 1.48264 ± 0.01 | 1.47638 ± 0.01 |  |  |  |  |  |  |  |  |  |  | 
c1ccccc1 [benzene] + ClCCCl |  |  |  |  |  |  |  |  |  |  |  |  |  |  |  |  |  |  |  |  | mass density ([3]; 293.15 K, x2 = 0): 878.87 ± 10 kg/m3; mass density ([3]; 303.15 K, x2 = 0): 868.2 ± 10 kg/m3; mass density ([3]; 313.15 K, x2 = 0): 857.44 ± 10 kg/m3; mass density ([3]; 323.15 K, x2 = 0): 846.62 ± 10 kg/m3; mass density ([3]; 333.15 K, x2 = 0): 835.71 ± 10 kg/m3; refractive index ([4]; 293.15 K, x2 = 0): 1.50118 ± 0.01; refractive index ([4]; 303.15 K, x2 = 0): 1.49517 ± 0.01; refractive index ([4]; 313.15 K, x2 = 0): 1.4885 ± 0.01; refractive index ([4]; 323.15 K, x2 = 0): 1.48264 ± 0.01; refractive index ([4]; 333.15 K, x2 = 0): 1.47638 ± 0.01
Brc1ccccc1 [bromobenzene] | 1495.52 ± 10 | 1481.97 ± 10 | 1468.41 ± 10 | 1454.85 ± 10 | 1441.22 ± 10 | 1.55981 ± 0.01 | 1.55442 ± 0.01 | 1.5489 ± 0.01 | 1.54319 ± 0.01 | 1.53742 ± 0.01 |  |  |  |  |  |  |  |  |  |  | 
Clc1ccccc1 [chlorobenzene] | 1106.49 ± 10 | 1095.71 ± 10 | 1084.86 ± 10 | 1073.96 ± 10 | 1063.01 ± 10 | 1.52455 ± 0.01 | 1.51902 ± 0.01 | 1.51346 ± 0.01 | 1.50781 ± 0.01 | 1.50223 ± 0.01 |  |  |  |  |  |  |  |  |  |  | 
O=[N+]([O-])c1ccccc1 [nitrobenzene] | 1203.05 ± 10 | 1193.15 ± 10 | 1183.21 ± 10 | 1173.27 ± 10 | 1163.32 ± 10 | 1.55241 ± 0.01 | 1.54763 ± 0.01 | 1.54288 ± 0.01 | 1.53795 ± 0.01 | 1.53289 ± 0.01 |  |  |  |  |  |  |  |  |  |  | 
